From US20200291018A1, “TAM KINASE INHIBITORS” (SYROS PHARMACEUTICALS, INC., priority 2017, published 2020) come the findings set out here.

The target in one assay is T1, TYRO3 (Homo sapiens, UniProt Q06418).
T1 sequence (Q06418 41-890): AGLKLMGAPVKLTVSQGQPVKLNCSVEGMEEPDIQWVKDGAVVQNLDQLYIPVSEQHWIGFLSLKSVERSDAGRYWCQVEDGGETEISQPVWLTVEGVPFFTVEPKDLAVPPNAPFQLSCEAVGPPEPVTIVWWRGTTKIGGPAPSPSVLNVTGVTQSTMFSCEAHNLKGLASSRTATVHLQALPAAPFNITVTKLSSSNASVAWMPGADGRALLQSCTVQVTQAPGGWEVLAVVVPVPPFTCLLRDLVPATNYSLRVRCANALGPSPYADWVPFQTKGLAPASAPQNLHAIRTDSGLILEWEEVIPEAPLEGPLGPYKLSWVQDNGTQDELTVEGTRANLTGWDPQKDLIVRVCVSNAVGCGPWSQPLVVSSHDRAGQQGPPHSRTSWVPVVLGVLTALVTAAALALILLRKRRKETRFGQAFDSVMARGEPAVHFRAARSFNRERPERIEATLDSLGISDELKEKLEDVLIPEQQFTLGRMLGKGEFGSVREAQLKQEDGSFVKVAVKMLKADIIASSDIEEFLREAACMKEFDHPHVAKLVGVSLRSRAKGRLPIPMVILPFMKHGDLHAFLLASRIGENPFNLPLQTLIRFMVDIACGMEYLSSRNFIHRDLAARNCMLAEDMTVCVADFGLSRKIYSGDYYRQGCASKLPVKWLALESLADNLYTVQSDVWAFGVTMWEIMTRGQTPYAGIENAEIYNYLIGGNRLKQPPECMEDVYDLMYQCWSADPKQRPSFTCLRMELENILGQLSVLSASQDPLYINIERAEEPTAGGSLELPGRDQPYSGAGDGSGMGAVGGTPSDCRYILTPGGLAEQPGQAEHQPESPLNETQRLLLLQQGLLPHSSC
The experiment in a line: TR-FRET kinase activity assay, TYRO3. Type of assay: biochemical. To be noted: ATP at Km, 60 minutes. The method in brief: (§1)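 IC50 came from TR-FRET signal after 30 min dark development with a Europium-labeled phospho-specific antibody. This followed a 60 min RT reaction, stopped with EDTA, started with ATP at Km per enzyme. Peptide substrate, enzyme and compound were premixed in HEPES pH 7.5 buffer with MgCl2, EGTA, Brij 35 and DTT.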

The next assay addresses T2, FLT3 (Homo sapiens, UniProt P36888).
T2 sequence (P36888 27-993): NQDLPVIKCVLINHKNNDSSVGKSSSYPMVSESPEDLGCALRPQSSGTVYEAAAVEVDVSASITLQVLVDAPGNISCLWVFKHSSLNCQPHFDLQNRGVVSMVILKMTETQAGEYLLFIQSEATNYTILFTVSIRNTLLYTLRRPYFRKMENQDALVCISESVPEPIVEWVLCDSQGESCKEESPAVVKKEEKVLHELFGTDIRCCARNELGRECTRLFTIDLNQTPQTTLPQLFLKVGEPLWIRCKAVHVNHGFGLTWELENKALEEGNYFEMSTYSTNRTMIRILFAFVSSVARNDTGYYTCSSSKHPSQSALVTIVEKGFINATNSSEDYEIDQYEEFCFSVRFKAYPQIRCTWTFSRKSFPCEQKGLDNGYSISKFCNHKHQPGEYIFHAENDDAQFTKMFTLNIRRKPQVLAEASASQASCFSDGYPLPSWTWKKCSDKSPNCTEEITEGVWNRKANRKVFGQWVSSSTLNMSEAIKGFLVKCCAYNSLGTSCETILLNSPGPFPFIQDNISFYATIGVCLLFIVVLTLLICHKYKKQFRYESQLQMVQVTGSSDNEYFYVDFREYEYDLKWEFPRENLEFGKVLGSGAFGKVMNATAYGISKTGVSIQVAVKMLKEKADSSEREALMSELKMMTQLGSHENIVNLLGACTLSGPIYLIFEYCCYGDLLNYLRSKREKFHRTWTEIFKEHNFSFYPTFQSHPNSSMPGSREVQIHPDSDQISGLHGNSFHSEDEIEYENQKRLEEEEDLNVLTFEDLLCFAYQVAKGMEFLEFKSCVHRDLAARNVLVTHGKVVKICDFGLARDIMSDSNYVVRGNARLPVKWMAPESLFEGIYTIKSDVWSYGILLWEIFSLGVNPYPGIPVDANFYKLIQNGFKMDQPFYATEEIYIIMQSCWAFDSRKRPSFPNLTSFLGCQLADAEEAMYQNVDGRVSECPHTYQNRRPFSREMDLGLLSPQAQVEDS
The experiment in a line: TR-FRET kinase activity assay, FLT3. In kind it is biochemical. To be noted: ATP at Km, 60 minutes. The essentials: as §1

For the molecule `CCCC(C)Nc1ncc2c(NC3CCNCC3)ncc([C@H]3CC[C@H](O)CC3)c2n1` (stereo partly drawn) [Compound 158], the values for the IC50 against TYRO3 and against FLT3 were at most 0.1 µM and 0.1 to 1 µM, respectively.
For the molecule `CCCC(C)Nc1ncc2c(N3CC[C@H](N(C)C)C3)ncc([C@H]3CC[C@H](O)CC3)c2n1` (stereo partly drawn) [Compound 159], the half-maximal inhibitory concentration (IC50) was at most 0.1 µM on TYRO3 and 1 to 10 µM on FLT3.
For `CCCC(C)Nc1ncc2c(OC[C@H]3CC[C@H](O)CC3)ncc([C@H]3CC[C@H](O)CC3)c2n1` (stereo partly drawn) [Compound 160], the IC50 on TYRO3 is at most 0.1 µM; against FLT3 it was 1 to 10 µM.
For `CCCC(C)Nc1ncc2c(OC3CC(C)(C)N(C)C(C)(C)C3)ncc([C@H]3CC[C@H](O)CC3)c2n1` (stereo partly drawn) [Compound 161], in that order: at most 0.1 µM and 0.1 to 1 µM.
For `CN1CCC(Nc2ncc3c(OC4CCNCC4)ncc([C@H]4CC[C@H](O)CC4)c3n2)C1=O` (stereo partly drawn) [Compound 162], in that order: 1 to 10 µM and 1 to 10 µM.
As to `Cc1nccn1CCNc1ncc2c(OC3CCNCC3)ncc([C@H]3CC[C@H](O)CC3)c2n1` [Compound 163], the IC50 on TYRO3 was at most 0.1 µM; against FLT3, 1 to 10 µM.
For `O[C@H]1CC[C@H](c2cnc(OC3CCNCC3)c3cnc(NC4CCC(F)(F)CC4)nc32)CC1` [Compound 164], in that order: 0.1 to 1 µM and 1 to 10 µM.
For `CCCC(C)Nc1ncc2c(NC3CCN(C(=O)C(F)(F)F)CC3)ncc([C@H]3CC[C@H](O)CC3)c2n1` (stereo partly drawn) [Compound 165], in that order: at most 0.1 µM and 0.1 to 1 µM.
For `CCCC(C)Nc1ncc2c(OC3CCNCC3)ncc([C@H]3CC[C@H](O)CC3)c2n1` (stereo partly drawn) [Compound 166], in that order: at most 0.1 µM and 0.1 to 1 µM.
In the case of `CC1CC(Nc2ncc3c(OC4CCNCC4)ncc([C@H]4CC[C@H](O)CC4)c3n2)C1` (stereo partly drawn) [Compound 167], the IC50 against TYRO3 and against FLT3 was at most 0.1 µM each time.
Consider `CC1CC(Nc2ncc3c(OC4CCNCC4)ncc([C@H]4CC[C@@H](O)CC4)c3n2)C1` (stereo partly drawn) [Compound 168], for which the figures for the half-maximal inhibitory concentration (IC50) against TYRO3 and against FLT3 were at most 0.1 µM and 0.1 to 1 µM, respectively.
In the case of `CCCC(C)Nc1ncc2c(=O)n(CCN(C)C)cc([C@H]3CC[C@H](O)CC3)c2n1` (stereo partly drawn) [Compound 169], the IC50 against TYRO3 was at most 0.1 µM; on FLT3 it was 1 to 10 µM.
For `CCCC(C)Nc1ncc2c(OC3CCN(CCC(=O)N(C)C)CC3)ncc([C@H]3CC[C@H](O)CC3)c2n1` (stereo partly drawn) [Compound 170], in that order: at most 0.1 µM and 1 to 10 µM.
For `CCC[C@H](C)Nc1ncc2c(OC3CCNCC3)ncc([C@H]3CC[C@H](O)CC3)c2n1` [Compound 171], in that order: at most 0.1 µM and 0.1 to 1 µM.
For `CCCC(C)Nc1ncc2c(OC3CCN(CC(=O)N(C)C)CC3)ncc([C@H]3CC[C@H](O)CC3)c2n1` (stereo partly drawn) [Compound 172], in that order: at most 0.1 µM and 1 to 10 µM.
In the case of `CCCC(C)Nc1ncc2c(OC3CCN(CCOC)CC3)ncc([C@H]3CC[C@H](O)CC3)c2n1` (stereo partly drawn) [Compound 173], the concentration for half-maximal inhibition (IC50) on TYRO3 is at most 0.1 µM; on FLT3, 1 to 10 µM.
As to `CCCC(C)Nc1ncc2c(O[C@@H]3C[C@H]4CC[C@@H](C3)O4)ncc([C@H]3CC[C@H](O)CC3)c2n1` (stereo partly drawn) [Compound 174], the IC50 at TYRO3 is 0.1 to 1 µM; against FLT3, 1 to 10 µM.
In the case of `CCCC(C)Nc1ncc2c(O[C@H]3C[C@H]4CC[C@@H](C3)O4)ncc([C@H]3CC[C@H](O)CC3)c2n1` (stereo partly drawn) [Compound 175], the IC50 at TYRO3 and against FLT3 was 0.1 to 1 µM throughout.
Turning to `CCCC(C)Nc1ncc2c(O[C@H]3C[C@@H](O)C3)ncc([C@H]3CC[C@H](O)CC3)c2n1` (stereo partly drawn) [Compound 176], the figures for the IC50 at TYRO3 and on FLT3 were at most 0.1 µM and 0.1 to 1 µM, respectively.
As for `CCCC(C)Nc1ncc2c(=O)n(CCN3CCOCC3)cc([C@H]3CC[C@H](O)CC3)c2n1` (stereo partly drawn) [Compound 177], the results for the half-maximal inhibitory concentration (IC50) against TYRO3 and against FLT3 were at most 0.1 µM and 1 to 10 µM, respectively.
For `CC(C)C(C)Nc1ncc2c(OC3CCNCC3)ncc([C@H]3CC[C@H](O)CC3)c2n1` (stereo partly drawn) [Compound 178], in that order: at most 0.1 µM and 1 to 10 µM.
